The subject of experiment [1] is Haemonchus contortus. In words: activity in vitro against Haemonchus contortus (egg hatch and larval development).
Experiment [2] concerns Dirofilaria immitis. As to the kind of experiment: activity in vitro against Dirofilaria immitis microfilariae (motility). On the set-up: dose or concentration left out as unconfirmed.
Experiment [3] deals with Trichostrongylus colubriformis. In words: activity in vitro against Trichostrongylus colubriformis (egg hatch and larval development). Set-up: dose or concentration left out as unconfirmed.
Experiment [4] has as its system H. contortus. In words: larval development assay, number of L3 H. contortus. Set-up: species or system Haemonchus contortus.
Experiment [5] deals with human cervical cancer HeLa. In words: fluorometric cell viability assay (Resazurin) in HeLa. To be noted: read-out: IC50 in HeLa. (In general: The colour change of resazurin is a common sign of viable cells or microbes.)
Description: (§1) Human cervical carcinoma cells (HeLa) were cultured in DMEM (Gibco) supplemented with 5% fetal calf serum (FCS, Gibco), 100 U/ml penicillin, 100 μg/ml streptomycin at 37° C. and 5% CO2. The normal human fetal lung fibroblast MRC-5 cell line was maintained in F-10 medium (Gibco) supplemented with 10% FCS (Gibco), 200 mmol/l L-Glutamine, 100 U/ml penicillin, and 100 μg/ml streptomycin at 37° C. and 5% CO2. To establish the anticancer potential of the compounds they were tested in one cell line, namely HeLa by a fluorometric cell viability assay using Resazurin (Promocell GmbH). […] 1 day before treatment, cells were plated in triplicates in 96-well plates at a density of 4×10^3 cells/well in 100 μl for HeLa and 7×10^3 cells/well for MRC-5 cells. Cells were treated with increasing concentrations of the compounds for 2 days. After 2 days, medium and drug were removed and 100 ml fresh medium containing Resazurin (0.2 mg/ml final concentration) were added. After 4 h of incubation at 37′C, the highly red fluorescent dye resorufin's fluorescence was quantified at 590 nm emission with 540 nm excitation wavelength in the SpectraMax M5 microplate Reader.
For experiment [6], the system named is human lung fibroblasts MRC-5. As to the kind of experiment: fluorometric cell viability assay (Resazurin) in MRC-5. As to conditions: read-out: IC50 in MRC-5.
Description: as §1
The subject of experiment [7] is C. elegans. In words: C. elegans movement inhibition assay.
Description: Asynchronous N2 C. elegans worms (Bristol) were maintained on nematode growth medium (NGM) agar, seeded with a lawn on OP50 E. coli as a food-source, according to standard protocol (Maintenance of C. elegans; Stiernagle, T., Ed.; WormBook, 2006.). Worms were harvested from NGM plates by washing with M9 buffer (42 mmol/l Na2HPO4, 22 mmol/l KH2PO4, 86 mmol/l NaCl and 1 mmol/MgSO4), aspiration and collection in a 10 mL tube (Falcon). The average number of worms in 5 μL of this suspension was calculated by transferring 4×5 μL aliquots to a glass slide (Menzel Glaser), and worms were enumerated under a compound microscope (Olympus CH30). To adjust the suspension to contain 1 worm per μL, M9 buffer was either added or removed after pelleting worms at 600×g for 30 sec.
A volume of 70 μL of M9 buffer was added to each well in a 96-well plate, using a multichannel pipettor. A volume of 20 μL of worm suspension was added to each well using a single-channel pipettor, with a trimmed pipette tip (increased aperture to minimize damage to worms). The worm suspension was resuspended by flicking after every three wells to maintain consistency. The compounds were stored at 4° C., and diluted in dimethyl sulfoxide (DMSO) to achieve a 100 mmol/l concentration 1 hr prior to addition to assay. These stock solutions were diluted further in DMSO to create a series of 20 mmol/l, 2 mmol/l, 0.02 mmol/l and 0.002 mmol/l which were subsequently diluted 1:20 in M9 buffer to create 1 mmol/l, 0.1 mmol/l, 1 μmol/l and 0.1 μmol/l (all 5% (v/v) DMSO). […] A Zolvix (monepantel) dilution series was simultaneously created following the same dilution schema, and used as a positive control; 10 μL of 10% DMSO was added to achieve 1% DMSO vehicle control. 10 μL M9 was added to negative control wells (see FIG. 1). Plates were incubated at room temperature (22-24° C.) overnight at 20° C.
Immobile worms were counted as a percentage of total worms in each well using an Olympus SZ30 dissecting microscope. The immobile fraction was subtracted from the total, and this remainder was divided by the total to give a percentage of live worms per well.
Where [8] appears, read: HeLa cells, treated for 2 days, Resazurin.
The mark [9] stands for this setting: MRC-5 cells, treated for 2 days, Resazurin.

21 compounds from patent US20160207951A1, “ORGANOMETALLIC COMPOUNDS FOR USE AS ANTHELMINTICS” (UNIVERSITÄT ZÜRICH, priority 2013, published 2016) can be followed below.

Where two headings read alike, the source gives them in different places. Where only a bound is given, the exact number is not on record here.

In the case of “2-(Hydroxymethyl)ruthenocenecarboxaldehyde oxime [Compound 32]”, the “Activity against Haemontus Contortus at 10 [mg/mL]” value in experiment [1] was determined as 35%. In addition, in experiment [2], the “Activity against Dirofilaria immitis at 10 [mg/mL]” value worked out at 12%. Further, in experiment [3], the “Activity against Trychostrongylus colubriformis at 10 [mg/mL]” value came out at 33%.

Take “2-(hydroxymethyl)ferrocenecarboxaldehydeoxime [Compound 29]”: the “Activity against Haemontus Contortus at 10 [mg/mL]” value in experiment [1] is recorded as 47%. The “Activity against Dirofilaria immitis at 10 [mg/mL]” value in experiment [2] turned out to be 12%. In addition, the “Activity against Trychostrongylus colubriformis at 10 [mg/mL]” value in experiment [3] is 49%.

With “2-(hydroxymethyl)ferrocenylmethylamine [Compound 30]”, the “Activity against Haemontus Contortus at 10 [mg/mL]” value in experiment [1] is 24%. The “Activity against Dirofilaria immitis at 10 [mg/mL]” value in experiment [2] came out at 0%. Moreover, the “Activity against Trychostrongylus colubriformis at 10 [mg/mL]” value in experiment [3] is reported as 11%.

Take `O=C(NC[c-]1cccc1CO)c1ccc(SC(F)(F)F)cc1.[Fe+2].c1cc[cH-]c1` (centres unmarked) [Compound 3]: the “Number of L3 H. contortus/100 μM” value in experiment [4] is more than 100. Also, the “Activity against Haemontus Contortus at 10 [mg/mL]” value in experiment [1] came to 24%. Also, the “Activity against Dirofilaria immitis at 10 [mg/mL]” value in experiment [2] is 0%. Also, the IC50 in experiment [5] (setting [8]) came to 20 µM; in experiment [6] (setting [9]) it was 44.6 µM. Besides, in experiment [3], the “Activity against Trychostrongylus colubriformis at 10 [mg/mL]” value is recorded as 13%. The “Mobility in C. elegans at 50 μM” value in experiment [7] is 4%.

Take `O=[C]=[Co]12(=[C]=O)(=[C]=O)[CH]3[C]1(CNC(=O)c1ccc(SC(F)(F)F)cc1)[Co]32(=[C]=O)(=[C]=O)=[C]=O` (centres unmarked) [Compound 4]: in experiment [4], the “Number of L3 H. contortus/100 μM” value was found to be 76.7. The “Activity against Dirofilaria immitis at 10 [mg/mL]” value in experiment [2] came out at 68%. For the same compound, the “Activity against Trychostrongylus colubriformis at 10 [mg/mL]” value in experiment [3] was found to be 44%. In experiment [7], the “Mobility in C. elegans at 50 μM” value worked out at 2%.

Take `O=[C]=[Co]12(=[C]=O)(=[C]=O)[C]3(CO)[C]1(CNC(=O)c1ccc(SC(F)(F)F)cc1)[Co]32(=[C]=O)(=[C]=O)=[C]=O` (centres unmarked) [Compound 5]: the “Activity against Haemontus Contortus at 10 [mg/mL]” value in experiment [1] was 64%. Further, in experiment [2], the “Activity against Dirofilaria immitis at 10 [mg/mL]” value is listed as 45%. Moreover, the “Activity against Trychostrongylus colubriformis at 10 [mg/mL]” value in experiment [3] was 77%.

With `N#Cc1ccc(C(F)(F)F)c(OCc2ccc[c-]2CNC(=O)c2ccc(SC(F)(F)F)cc2)c1.[Fe+2].c1cc[cH-]c1` (centres unmarked) [Compound 6, N-(2-((5-cyano-2-(trifluormethyl)phenoxy)methyl)ferrocenyl)-4-((trifluoromethyl)thio)benzamide], the “Number of L3 H. contortus/100 μM” value in experiment [4] was more than 100. Further, in experiment [1], the “Activity against Haemontus Contortus at 10 [mg/mL]” value came out at 20%. Besides, the IC50 in experiment [5] (setting [8]) was 27.2 µM; in experiment [6] (setting [9]), 26.7 µM. The “Activity against Trychostrongylus colubriformis at 10 [mg/mL]” value in experiment [3] is recorded as 31%. The “Mobility in C. elegans at 50 μM” value in experiment [7] stood at 1%.

For the compound `N#Cc1ccc(C(F)(F)F)c(OC[C]23[C]4(CNC(=O)c5ccc(SC(F)(F)F)cc5)[Co]2(=[C]=O)(=[C]=O)(=[C]=O)[Co]43(=[C]=O)(=[C]=O)=[C]=O)c1` (centres unmarked) [Compound 7, Dicobalthexacarbonyl-N-(4-(5-cyano-2-(trifluoromethyl)phenoxy)but-2-en-1-yl)-4-((trifluoromethyl)thio)benzamide], the “Activity against Haemontus Contortus at 10 [mg/mL]” value in experiment [1] turned out to be 63%. In experiment [2], the “Activity against Dirofilaria immitis at 10 [mg/mL]” value stood at 100%. Further, the IC50 in experiment [5] (setting [8]) came out at 26.8 µM. The “Activity against Trychostrongylus colubriformis at 10 [mg/mL]” value in experiment [3] turned out to be 25%.

With `CC(C#N)(CO)NC(=O)[c-]1cccc1.[Fe+2].c1cc[cH-]c1` (centres unmarked) [Compound 10], the “Number of L3 H. contortus/100 μM” value in experiment [4] was more than 100. Moreover, in experiment [3], the “Activity against Trychostrongylus colubriformis at 10 [mg/mL]” value was determined as 57%. Besides, the “Mobility in C. elegans at 50 μM” value in experiment [7] came to 4%.

For the compound `N#Cc1ccc(C(F)(F)F)c(OCC#CCNC(=O)c2ccc(SC(F)(F)F)cc2)c1` [Compound 13, N-(4-(5-cyano-2-(trifluoromethyl)phenoxy)but-2-yn-1-yl)-4-((trifluoromethyl)thio)benzamide], the “Activity against Haemontus Contortus at 10 [mg/mL]” value in experiment [1] is listed as 52%. In addition, in experiment [2], the “Activity against Dirofilaria immitis at 10 [mg/mL]” value turned out to be 19%. For the same compound, the IC50 in experiment [5] (Homo sapiens, HeLa, 48 h) amounted to 30.6 µM; in experiment [6] (Homo sapiens, MRC5, 48 h), 96.4 µM. For the same compound, in experiment [3], the “Activity against Trychostrongylus colubriformis at 10 [mg/mL]” value is 49%.

`O=C(NCC#CCO)c1ccc(SC(F)(F)F)cc1` [Compound 14, N-(4-hydroxybut-2-yn-1-yl)-4-((trifluoromethyl)thio)benzamide]: in experiment [1], the “Activity against Haemontus Contortus at 10 [mg/mL]” value is reported as 32%. In experiment [2], the “Activity against Dirofilaria immitis at 10 [mg/mL]” value was 46%. In addition, the half-maximal inhibitory concentration (IC50) in experiment [5] (Homo sapiens, HeLa, 48 h) was more than 100 µM. Also, the “Activity against Trychostrongylus colubriformis at 10 [mg/mL]” value in experiment [3] is given as 51%.

Consider `C#CCNC(=O)c1ccc(SC(F)(F)F)cc1` [Compound 15], for which the “Number of L3 H. contortus/100 μM” value in experiment [4] is reported as more than 100. The “Activity against Haemontus Contortus at 10 [mg/mL]” value in experiment [1] amounted to 51%. In addition, the “Activity against Dirofilaria immitis at 10 [mg/mL]” value in experiment [2] came out at 28%. The “Activity against Trychostrongylus colubriformis at 10 [mg/mL]” value in experiment [3] was 51%. For the same compound, the “Mobility in C. elegans at 50 μM” value in experiment [7] came to 3%.

Consider `CN(C)Cc1ccc[c-]1C=O.[Fe+2].c1cc[cH-]c1` (centres unmarked) [Compound 27, 2-(N,N-dimethylaminomethylferrocene)carboxaldehyde], for which the “Activity against Haemontus Contortus at 10 [mg/mL]” value in experiment [1] is on record as 39%. In addition, in experiment [2], the “Activity against Dirofilaria immitis at 10 [mg/mL]” value is recorded as 18%. Further, the “Activity against Trychostrongylus colubriformis at 10 [mg/mL]” value in experiment [3] is recorded as 44%.

`CC(=O)OCc1ccc[c-]1C=O.[Fe+2].c1cc[cH-]c1` (centres unmarked) [Compound 28, 2-(acetoxymethylferrocene)carboxaldehyde]: in experiment [1], the “Activity against Haemontus Contortus at 10 [mg/mL]” value amounted to 14%. Also, the “Activity against Dirofilaria immitis at 10 [mg/mL]” value in experiment [2] came out at 15%. Also, the “Activity against Trychostrongylus colubriformis at 10 [mg/mL]” value in experiment [3] is recorded as 6%.

Regarding `O=C[c-]1cccc1CO.[Fe+2].c1cc[cH-]c1` (centres unmarked) [Compound 31, 2-(Hydroxymethylferrocene)carboxaldehyde], in experiment [1], the “Activity against Haemontus Contortus at 10 [mg/mL]” value is given as 40%. In addition, the “Activity against Trychostrongylus colubriformis at 10 [mg/mL]” value in experiment [3] amounted to 37%.

`CC(=O)OCc1ccc[c-]1C=O.[Ru+2].c1cc[cH-]c1` (centres unmarked) [Compound 36, 2-(Acetoxymethylruthenocene)carboxaldehyde]: the “Activity against Haemontus Contortus at 10 [mg/mL]” value in experiment [1] was 52%. Further, the “Activity against Dirofilaria immitis at 10 [mg/mL]” value in experiment [2] amounted to 11%. Further, in experiment [3], the “Activity against Trychostrongylus colubriformis at 10 [mg/mL]” value turned out to be 54%.

Regarding `I[c-]1cccc1.N#CS[c-]1cccc1.[Ru+2]` [Compound 40, 1,1′-Thiocyanatoiodruthenocene], the “Activity against Dirofilaria immitis at 10 [mg/mL]” value in experiment [2] was 98%. The “Activity against Trychostrongylus colubriformis at 10 [mg/mL]” value in experiment [3] came out at 55%.

For “N-(2-cyano-1-hydroxypropan-2-yl)ruthenoceneamide [Compound 41]”, the “Activity against Haemontus Contortus at 10 [mg/mL]” value in experiment [1] was 0%. Besides, the “Activity against Trychostrongylus colubriformis at 10 [mg/mL]” value in experiment [3] was 0%.

As for “N-ferrocenyl-4-((trifluoromethyl)thio)benzamide [Compound 2]”, the “Number of L3 H. contortus/100 μM” value in experiment [4] is more than 100. The “Activity against Dirofilaria immitis at 10 [mg/mL]” value in experiment [2] was found to be 69%. The IC50 in experiment [5] (setting [8]) came to 17.6 µM; in experiment [6] (setting [9]), 42 µM. Further, in experiment [3], the “Activity against Trychostrongylus colubriformis at 10 [mg/mL]” value is 80%. Moreover, the “Mobility in C. elegans at 50 μM” value in experiment [7] turned out to be 0%.

Regarding Thiocyanatoruthenocene [Compound 39], the “Activity against Haemontus Contortus at 10 [mg/mL]” value in experiment [1] was determined as 0%. Besides, the “Activity against Dirofilaria immitis at 10 [mg/mL]” value in experiment [2] worked out at 66%. Moreover, the “Activity against Trychostrongylus colubriformis at 10 [mg/mL]” value in experiment [3] came to 0%.

“Trifluoromethylthioferrocene [Compound 38]”: the “Activity against Haemontus Contortus at 10 [mg/mL]” value in experiment [1] is reported as 0%. The “Activity against Dirofilaria immitis at 10 [mg/mL]” value in experiment [2] was found to be 31%. For the same compound, the “Activity against Trychostrongylus colubriformis at 10 [mg/mL]” value in experiment [3] is reported as 0%.

In general, IC50 refers to the midpoint of a concentration-inhibition curve.
